How the values were obtained:
[1] = tested on: O-glycosylation of human anti-Her2 antibody in Pichia pastoris strain yGLY4280 (Pmt-mediated); assay: O-glycan occupancy of secreted anti-Her2 antibody (Dionex HPAEC-PAD) from shake-flask cultures treated with Pmt inhibitor; type: cell-based; settings: inhibitor 0.15 ug/mL added at induction; 24 hr in induction media; protein A purified anti-Her2; no inhibitor >14.0
Description: Anti-Her2 protein expression for strain yGLY4280 was carried out in shake flasks at 24° C. with buffered glycerol-complex medium (BMGY) consisting of 1% yeast extract, 2% peptone, 100 mM potassium phosphate buffer pH 6.0, 1.34% yeast nitrogen base, 4×10-5% biotin, and 1% glycerol. The induction medium for protein expression was buffered methanol-complex medium (BMMY) consisting of 1% methanol instead of glycerol in BMGY. Pmt inhibitors in 100% methanol were added to the growth medium to a final concentration of 0.15 ug/mL at the time the induction medium was added. This is an intermediate dose that is sufficient to reduce O-glycosylation to roughly 50% of that observed without Pmt inhibitor treatment, and thus allows a comparison of potency for the different inhibitors. Following 24 hr further growth in the induction media, cultures were harvested and centrifuged at 2,000 rpm for five minutes to remove cells from the supernatant.
O-glycan determination was performed using a Dionex-HPLC(HPAEC-PAD) as follows. To measure O-glycosylation reduction, protein was purified from the growth medium using protein A chromatography (Li et al. Nat. Biotechnol. 24(2):210-5 (2006)) and the O-glycans released from and separated from protein by alkaline elimination (beta-elimination) (Harvey, Mass Spectrometry Reviews 18: 349-451 (1999)). This process also reduces the newly formed reducing terminus of the released O-glycan (either oligomannose or mannose) to mannitol. The mannitol group thus serves as a unique indicator of each O— glycan. 0.5 nmole or more of protein, contained within a volume of 100 μL PBS buffer, was required for beta elimination. The sample was treated with 25 μL alkaline borohydride reagent and incubated at 50° C. for 16 hours. About 20 uL arabitol internal standard was added, followed by 10 μL glacial acetic acid. The sample was then centrifuged through a Millipore filter containing both SEPABEADS and AG 50W-X8 resin and washed with water. The samples, including wash, were transferred to plastic autosampler vials and evaporated to dryness in a centrifugal evaporator. 150 μL 1% AcOH/MeOH was added to the samples and the samples evaporated to dryness in a centrifugal evaporator. This last step was repeated five more times. 200 μL of water was added and 100 μL of the sample was analyzed by high pH anion-exchange chromatography coupled with pulsed electrochemical detection-Dionex HPLC(HPAEC-PAD). Average O-glycan occupancy was determined based upon the amount of mannitol recovered.

[2] = tested on: O-glycosylation of anti-Her2 heavy chain (Hc) in Pichia pastoris strain yGLY4280; assay: Western blot of anti-Her2 heavy chain O-glycosylation with 2-fold dilutions of Pmt inhibitor in 96-well plates (FIG. 1); type: cell-based; settings: 2-fold dilutions 5 to 0.009 ug/mL, 24 hours; for concentration as low as which O-glycosylation of anti-Her2 Hc was effectively reduced: Western blot
Excerpt: FIG. 1 illustrates the effect of Pmt inhibitors including the novel inhibitor shown as Example 4 on O-glycosylation of secreted recombinant monoclonal antibody in Pichia pastoris. […] Western blotting using an anti-human H+L antibody was used to detect heavy (Hc) and light (Lc) chains in the growth media of strains treated with increasing amounts of Pmt inhibitor (higher doses in left lanes). The slowest migrating band (marked with asterisk) indicates the O-glycosylated Hc which is eliminated by Pmt inhibitor treatment. […] Strain yGLY4280 was inoculated into 96-well deep well plates (Qiagen, Valencia, Calif.) containing 0.5 ml of BMGY media per well. After 24 hours growth with vigorous shaking, the 96-well plate was centrifuged at 2,000 rpm for five minutes to pellet cells. The media was removed and, following a wash step with 0.5 mL of BMMY media, the cells resuspended in 0.2 mL BMMY media in which Pmt inhibitors were diluted 2-fold across the rows (11 wells). Well #1 contained 5 ug/mL of inhibitor, well #2 contained 2.5 ug/mL and so on until well #10 contained 0.009 ug/mL; well #11 contained no inhibitor. After an additional 24 hours growth with vigorous shaking, the plate was centrifuged at 2,000 rpm for five minutes to pellet cells, and the cleared supernatant subjected to Western blot analysis to detect anti-Her2 expression. The Western blotting was performed as follows: seven μL of the supernatants were separated by reducing polyacrylamide gel electrophoresis (SDS-PAGE) according to Laemmli, U. K. (1970) Nature 227, 680-685 and then electroblotted onto nitrocellulose membranes (Schleicher & Schuell, now Whatman, Inc., Florham Park, N.J.). Anti-Her2 antibody chains were detected on the Western blots using a peroxidase-conjugated anti-human Hc and Lc antibody (Calbiochem/EMD Biosciences, La Jolla, Calif.) and developed using the ImmunoPure Metal Enhanced DAB Substrate Kit (Pierce Biotechnology, Rockford, Ill.).

Row | SMILES | O-glycan occupancy (moles O-mannose/moles Ab) [1] | effect on O-glycosylation of anti-Her2 Hc (Western blot, in words) ([2]; FIG. 1) | concentration as low as which O-glycosylation of anti-Her2 Hc was effectively reduced [2]
1 | COCC(COC)(Oc1cc(/C=C2/SC(=S)N(CC(=O)O)C2=O)ccc1OCCc1ccc(F)cc1)c1ccccc1 [Example 1] | 4.1 moles O-mannose/moles Ab |  | 
2 | CC(C)COCC(Oc1cc(/C=C2\SC(=S)N(CC(=O)O)C2=O)ccc1OCCc1ccc(F)cc1)c1ccccc1 (centres unmarked) [Example 4] | 5.2 moles O-mannose/moles Ab | reduced O-glycosylation in a dose-dependent fashion | 0.018 µg/mL
3 | O=C(O)CN1C(=O)/C(=C/c2ccc(OCCc3ccccc3)c(OC(CO)c3ccccc3)c2)SC1=S (centres unmarked) [Pmti-3, reference compound] | 8.1 moles O-mannose/moles Ab |  | 0.018 µg/mL
4 | O=C(O)CN1C(=O)/C(=C/c2ccc(OCCc3ccc(F)cc3)c(OC(c3ccccc3)C3CCCCC3)c2)SC1=S (centres unmarked) [Example 3] | 5.5 moles O-mannose/moles Ab |  | 
5 | O=C(O)CN1C(=O)/C(=C/c2ccc(OCCc3ccc(F)cc3)c(OC(c3ccccc3)c3ccccc3)c2)SC1=S [Example 2] | 4.3 moles O-mannose/moles Ab |  | 
